The text below walks through data of patent US11548913B2, “Therapeutic compositions including peptides and uses thereof” (Stealth BioTherapeutics Inc., priority 2015, dated 2023).

The subject of assay [1] is Excised Sprague-Dawley rat hearts. Put plainly: Modified Langendorff rat heart model, ischemia/reperfusion with peptide in the reperfusion buffer (Example 1). The settings on record: 1 μM peptide in Krebs buffer during 2 hours reperfusion after 20 min global no-flow ischemia; compared to controls. The protocol:
(§1) The Langendorff rodent heart model is widely employed in studies of myocardial function and responses to injury (e.g., ischemia). For whole-heart studies, male Sprague-Dawley rats (7-9 weeks old) were injected with pentobarbital (35 mg/kg, ip injection) and hearts were excised with midline thoracotomy. The aortas were secured around a cannula of a modified Langendorff apparatus and retrogradely perfused (perfusion pressure of 75 mm Hg) with a modified Krebs-Henseleit buffer containing (in mM): 118 NaCl, 24 NaHCO3, 4.75 KCl, 1.2 KH2PO4, 1.2 MgSO4, 2.0 CaCl2, and 10 glucose (gassed with 95/5% O2/CO2). Hearts were bathed in a buffer-filled perfusion chamber maintained at 37° C. for the duration of the experiments. Following the initiation of perfusion, hearts were instrumented for the simultaneous observation of mechanical and electrical function. A buffer-filled latex balloon (size 5, Harvard Apparatus, Holliston, Mass., USA), calibrated at the beginning of each day using a digital manometer, was inserted into the left ventricle (via the mitral valve) for the measurement of left ventricular developed pressure (LVDP), with balloon volume adjusted to establish a diastolic pressure of 5-8 mm Hg. Three electrodes were placed into the buffer filled perfusion chamber for the measurement of the volume-conducted electrocardiogram (ECG). Coronary flow rates were monitored constantly with a flow probe (Transconic Systems, Ithaca, N.Y., USA) connected in series with the perfusion line, and normalized to heart wet weight (in grams) at the end of each experiment. All physiological parameters were continuously monitored and stored on a personal computer using commercially available software (Chart, AD Instruments, Colorado Springs, Colo., USA). Heart rate was calculated using the LVDP trace, and maximal rates of contraction(+dP/dt) and relaxation (−dP/dt) were calculated using the derivative of the LVDP trace.
Following a 10 minute baseline period, ischemia/reperfusion was initiated. Hearts were exposed to global no-flow ischemia by stopping perfusion for 20 min. At the end of the index ischemia, static buffer from the perfusion lines was washed out (via an accessory port proximal to the aortic cannula), and reperfusion ensued for 2 hours either with Krebs buffer alone (control) or Krebs buffer containing an experimental peptide at a concentration of 1 μM. Peptides tested included D-Arg-D-Dmt-D-Lys-L-Phe-NH2 (SBT-46), D-Arg-L-DMT-L-Ala-L-Phe-NH2 (SBT-68), (Ac)-D-Arg-L-DMT-L-Lys-L-Phe-NH2 (SBT-85), D-Arg-L-Dmt-L-His-L-Phe-NH2(SBT-100), D-Arg-L-DMT-L-Orn-L-Phe-NH2 (SBT-102), D-Orn-L-DMT-L-Lys-L-Phe-NH2(SBT-131), D-(Amidine)Arg(propylamine)-L-DMT-L-Lys-L-Phe-NH2 (SBT-140), and D-Arg(butylamidine analog)-L-DMT-L-Lys-L-Phe-NH2(SBT-149). At the end of reperfusion, the left ventricle was dissected, sliced into 5 mm-thick slices, incubated in 1% triphenyltetrazolium chloride (TTC) for 10 min (37° C.) and digitally photographed for subsequent infarct size analysis. Infarct size was expressed as a percentage of the left ventricle (% area at risk (AAR))(calculated using ImageJ software, NIH, Bethesda, Md., USA).

Another assay concerns excised rat hearts. Put plainly: Modified Langendorff rat heart model, peptide pre-treatment before ischemia/reperfusion (Example 2). The settings on record: hearts bathed 2 hours in 1 μM peptide before 20 min ischemia and 2 hours reperfusion; vs SBT-46, SBT-102 and controls; anticipated. How it is done:
as §1, with “are” for “were”, “USA), which is” for “USA),”, “is” for “was”
Prior to the initiation of ischemia/reperfusion, the excised rat hearts are bathed in buffer containing an experimental peptide at a concentration of 1 μM or buffer alone (control) for two hours. The experimental peptide is selected from D-Arg-D-Dmt-D-Lys-L-Phe-NH2 (SBT-46), D-Arg-L-DMT-L-Ala-L-Phe-NH2 (SBT-68), (Ac)-D-Arg-L-DMT-L-Lys-L-Phe-NH2 (SBT-85), D-Arg-L-Dmt-L-His-L-Phe-NH2(SBT-100), D-Arg-L-DMT-L-Orn-L-Phe-NH2 (SBT-102), D-Orn-L-DMT-L-Lys-L-Phe-NH2(SBT-131), D-(Amidine)Arg(propylamine)-L-DMT-L-Lys-L-Phe-NH2(SBT-140), and D-Arg(butylamidine analog)-L-DMT-L-Lys-L-Phe-NH2 (SBT-149). Following a 10 minute baseline period, ischemia/reperfusion is initiated. Hearts are exposed to global no-flow ischemia by stopping perfusion for 20 min. At the end of the index ischemia, static buffer from the perfusion lines is washed out (via an accessory port proximal to the aortic cannula), and reperfusion ensues for 2 hours with Krebs buffer. At the end of reperfusion, the left ventricle is dissected, sliced into 5 mm-thick slices, incubated in 1% triphenyltetrazolium chloride (TTC) for 10 min (37° C.) and digitally photographed for subsequent infarct size analysis. Infarct size is expressed as a percentage of the left ventricle (% area at risk (AAR))(calculated using ImageJ software, NIH, Bethesda, Md., USA).

“Also recorded” adds a separate entry of the source. Square brackets hold non-standard residues; d marks the D form. Peptide text beside a SMILES is read from it. Dmt = Cc1cc(O)cc(C)c1C[C@H](N)C(=O)O

Regarding `Cc1cc(O)cc(C)c1C[C@H](NC(=O)[C@@H](CCCN)NC(=N)N)C(=O)N[C@@H](CCCCN)C(=O)N[C@@H](Cc1ccccc1)C(N)=O` [SBT-140, D-(Amidine)Arg(propylamine)-L-DMT-L-Lys-L-Phe-NH2], in assay [1], the “attenuation of cardiac ischemia injury and ischemia-reperfusion injury” value (from here on “attenuation”) is “able to attenuate cardiac ischemia injury and ischemia-reperfusion injury; also recorded: attenuation of cardiac ischemia-reperfusion injury”; the “infarct size expressed as a percentage of area at risk (AAR)” value (from here on “infarct size expressed as a percentage”) is “reduced infarct size”; the “left ventricular developed pressure (LVDP)” value is reported as “increased LVDP”; the “maximal rates of contraction (+dP/dt)” value is recorded as “increased maximal rates of contraction”. Further, the “maximal rates of relaxation (−dP/dt)” value in assay [1] is listed as “increased maximal rates of relaxation”. Further, in the assay with excised rat hearts, the LVDP entry is “increased LVDP”, the infarct size entry is “reduced infarct size”, the “maximal rates of contraction (+dP/dt)” value is “increased maximal rates of contraction” and the “maximal rates of relaxation (−dP/dt)” value is listed as “increased maximal rates of relaxation”.
For the compound D-Arg-L-Dmt-L-Orn-L-Phe-NH2 [SBT-102], in assay [1], the “attenuation” value is on record as “does not attenuate cardiac ischemia-reperfusion injury”; the “infarct size expressed as a percentage” value is “did not reduce infarct size”; the “left ventricular developed pressure (LVDP)” value is “did not reduce infarct size, increase LVDP”; the “maximal rates of contraction (+dP/dt)” value is “did not reduce infarct size, increase LVDP, or increase the maximal rates of contraction and relaxation”. Besides, the “maximal rates of relaxation (−dP/dt)” value in assay [1] was “did not reduce infarct size, increase LVDP, or increase the maximal rates of contraction and relaxation”.
In the case of `Cc1cc(O)cc(C)c1C[C@H](NC(=O)[C@H](N)CCCNC(=N)N)C(=O)N[C@@H](C)C(=O)N[C@@H](Cc1ccccc1)C(N)=O` [SBT-68, D-Arg-L-DMT-L-Ala-L-Phe-NH2] (H-[dR][Dmt]AF-NH2), in assay [1], the “attenuation” value is “able to attenuate cardiac ischemia injury and ischemia-reperfusion injury; also recorded: attenuation of cardiac ischemia-reperfusion injury”; the “infarct size expressed as a percentage” value was “reduced infarct size”; the “left ventricular developed pressure (LVDP)” value is “increased LVDP”; the “maximal rates of contraction (+dP/dt)” value is on record as “increased maximal rates of contraction”. Also, the “maximal rates of relaxation (−dP/dt)” value in assay [1] is reported as “increased maximal rates of relaxation”. In the assay on excised rat hearts, the LVDP result is recorded as “increased LVDP”, the infarct size result was “reduced infarct size”, the “maximal rates of contraction (+dP/dt)” value is “increased maximal rates of contraction” and the “maximal rates of relaxation (−dP/dt)” value is reported as “increased maximal rates of relaxation”.
On to `Cc1cc(O)cc(C)c1C[C@H](NC(=O)[C@H](N)CCCNC(=N)N)C(=O)N[C@@H](Cc1cnc[nH]1)C(=O)N[C@@H](Cc1ccccc1)C(N)=O` [SBT-100, D-Arg-L-Dmt-L-His-L-Phe-NH2] (H-[dR][Dmt]HF-NH2), for which, in assay [1], the “attenuation” value is “able to attenuate cardiac ischemia injury and ischemia-reperfusion injury; also recorded: attenuation of cardiac ischemia-reperfusion injury”; the “infarct size expressed as a percentage” value is listed as “reduced infarct size”; the “left ventricular developed pressure (LVDP)” value was “increased LVDP”; the “maximal rates of contraction (+dP/dt)” value was “increased maximal rates of contraction”. In assay [1], the “maximal rates of relaxation (−dP/dt)” value was “increased maximal rates of relaxation”. In addition, in the assay with excised rat hearts, the LVDP entry was “increased LVDP”, the infarct size entry is reported as “reduced infarct size”, the “maximal rates of contraction (+dP/dt)” value is “increased maximal rates of contraction” and the “maximal rates of relaxation (−dP/dt)” value is “increased maximal rates of relaxation”.
Consider `CC(=O)N[C@H](CCCNC(=N)N)C(=O)N[C@@H](Cc1c(C)cc(O)cc1C)C(=O)N[C@@H](CCCCN)C(=O)N[C@@H](Cc1ccccc1)C(N)=O` [SBT-85, (Ac)-D-Arg-L-DMT-L-Lys-L-Phe-NH2] (Ac-[dR][Dmt]KF-NH2), for which, in assay [1], the “attenuation” value is “able to attenuate cardiac ischemia injury and ischemia-reperfusion injury; also recorded: attenuation of cardiac ischemia-reperfusion injury”; the “infarct size expressed as a percentage” value was “reduced infarct size”; the “left ventricular developed pressure (LVDP)” value is “increased LVDP”; the “maximal rates of contraction (+dP/dt)” value is “increased maximal rates of contraction”. Further, the “maximal rates of relaxation (−dP/dt)” value in assay [1] is given as “increased maximal rates of relaxation”. Moreover, in the assay on excised rat hearts, the LVDP entry is “increased LVDP”, the infarct size entry is “reduced infarct size”, the “maximal rates of contraction (+dP/dt)” value is “increased maximal rates of contraction” and the “maximal rates of relaxation (−dP/dt)” value is recorded as “increased maximal rates of relaxation”.
Regarding D-Arg-D-Dmt-D-Lys-L-Phe-NH2 [SBT-46], in assay [1], the “attenuation” value is recorded as “does not attenuate cardiac ischemia-reperfusion injury”; the “infarct size expressed as a percentage” value is reported as “did not reduce infarct size”; the “left ventricular developed pressure (LVDP)” value is recorded as “did not reduce infarct size, increase LVDP”; the “maximal rates of contraction (+dP/dt)” value is “did not reduce infarct size, increase LVDP, or increase the maximal rates of contraction and relaxation”. In addition, the “maximal rates of relaxation (−dP/dt)” value in assay [1] is “did not reduce infarct size, increase LVDP, or increase the maximal rates of contraction and relaxation”.
